Columns and labels:
[1] = tested on: SNB-19; conditions: single dose 10 μM; CNS cancer
[2] = tested on: HOP-92; conditions: single dose 10 μM; non-small lung carcinoma
[3] = tested on: K-562; conditions: single dose 10 μM; leukemia
[4] = tested on: MOLT-4; conditions: single dose 10 μM; leukemia
[5] = tested on: NCI/ADR-RES; conditions: single dose 10 μM; ovarian carcinoma
[6] = tested on: TK-10; conditions: single dose 10 μM; renal carcinoma
[7] = tested on: EKVX; conditions: single dose 10 μM; non-small lung carcinoma
[8] = tested on: NCI-H226; conditions: single dose 10 μM; non-small lung carcinoma
[9] = tested on: MCF7; conditions: single dose 10 μM; breast carcinoma
[10] = tested on: SK-OV-3; conditions: single dose 10 μM; ovarian carcinoma
[11] = tested on: PC-3; conditions: single dose 10 μM; prostate carcinoma
[12] = tested on: ACHN; conditions: single dose 10 μM; renal carcinoma
[13] = tested on: M14; conditions: single dose 10 μM; melanoma
[14] = tested on: UO-31; conditions: single dose 10 μM; renal carcinoma
[15] = tested on: 786–0; conditions: single dose 10 μM; renal carcinoma
[16] = tested on: SF-268; conditions: single dose 10 μM; CNS cancer
[17] = tested on: HCT-116; conditions: single dose 10 μM; colon cancer
[18] = tested on: OVCAR-5; conditions: single dose 10 μM; ovarian carcinoma
[19] = tested on: A498; conditions: single dose 10 μM; renal carcinoma
[20] = tested on: UACC-62; conditions: single dose 10 μM; melanoma
[21] = tested on: CCRF-CEM; conditions: single dose 10 μM; leukemia
[22] = tested on: MDA-MB-468; conditions: single dose 10 μM; breast carcinoma
[23] = tested on: BT-549; conditions: single dose 10 μM; breast carcinoma
[24] = tested on: RPMI-8226; conditions: single dose 10 μM; leukemia
[25] = tested on: HL-60(TB); conditions: single dose 10 μM; leukemia
[26] = tested on: CAKI-1; conditions: single dose 10 μM; renal carcinoma
[27] = tested on: HOP-62; conditions: single dose 10 μM; non-small lung carcinoma
[28] = tested on: SF-295; conditions: single dose 10 μM; CNS cancer
[29] = tested on: NCI 60 cancer cell line panel; assay: NCI 60 full panel summary; conditions: single dose 10 μM; mean over the NCI 60 panel
[30] = tested on: MALME-3M; conditions: single dose 10 μM; melanoma
[31] = tested on: HCT-15; conditions: single dose 10 μM; colon cancer
[32] = tested on: SF-539; conditions: single dose 10 μM; CNS cancer
[33] = tested on: NCI-H522; conditions: single dose 10 μM; non-small lung carcinoma
[34] = tested on: T-47D; conditions: single dose 10 μM; breast carcinoma
[35] = tested on: SR; conditions: single dose 10 μM; leukemia
[36] = tested on: SK-MEL-5; conditions: single dose 10 μM; melanoma
[37] = tested on: SN12C; conditions: single dose 10 μM; renal carcinoma
[38] = tested on: LOX IMVI; conditions: single dose 10 μM; melanoma
[39] = tested on: HCC-2998; conditions: single dose 10 μM; colon cancer
[40] = tested on: A549/ATCC; conditions: single dose 10 μM; non-small lung carcinoma
[41] = tested on: SW-620; conditions: single dose 10 μM; colon cancer
[42] = tested on: NCI-H23; conditions: single dose 10 μM; non-small lung carcinoma
[43] = tested on: SK-MEL-2; conditions: single dose 10 μM; melanoma
[44] = tested on: OVCAR-8; conditions: single dose 10 μM; ovarian carcinoma
[45] = tested on: SK-MEL-28; conditions: single dose 10 μM; melanoma
[46] = tested on: RXF 393; conditions: single dose 10 μM; renal carcinoma
[47] = tested on: U251; conditions: single dose 10 μM; CNS cancer
[48] = tested on: NCI-H460; conditions: single dose 10 μM; non-small lung carcinoma
[49] = tested on: OVCAR-3; conditions: single dose 10 μM; ovarian carcinoma
[50] = tested on: COLO 205; conditions: single dose 10 μM; colon cancer
[51] = tested on: KM12; conditions: single dose 10 μM; colon cancer
[52] = tested on: OVCAR-4; conditions: single dose 10 μM; ovarian carcinoma
[53] = tested on: DU-145; conditions: single dose 10 μM; prostate carcinoma
[54] = tested on: MDA-MB-435; conditions: single dose 10 μM; melanoma
[55] = tested on: HT29; conditions: single dose 10 μM; colon cancer
[56] = tested on: IGROV1; conditions: single dose 10 μM; ovarian carcinoma
[57] = tested on: UACC-257; conditions: single dose 10 μM; melanoma
[58] = tested on: SNB-75; conditions: single dose 10 μM; CNS cancer

## 3-(5-(Benzofuran-2-yl)-1-phenyl-1H-pyrazol-3-yl)-1-(3,4-dimethoxyphenyl)prop-2-en-1-one [2c]
[1]
  GI%: 4.96%
[2]
  GI%: 13.94%
[3]
  GI%: 5.48%
[4]
  GI%: 4.38%
[5]
  GI%: 1.79%
[6]
  GI%: 6.22%
[7]
  GI%: 0.81%
[8]
  GI%: 1.83%
[9]
  GI%: 9.78%
[10]
  GI%: 11.15%
[11]
  GI%: 7.06%
[12]
  GI%: 0.70%
[13]
  GI%: 1.79%
[14]
  GI%: 15.32%
[15]
  GI%: 2.44%
[16]
  GI%: 1.66%
[17]
  GI%: 0.17%
[18]
  GI%: 0.00%
[19]
  GI%: 6.80%
[20]
  GI%: 4.68%
[21]
  GI%: 8.09%
[22]
  GI%: 0.93%
[23]
  GI%: 16.27%
[24]
  GI%: 4.63%
[25]
  GI%: 6.49%
[26]
  GI%: 10.30%
[27]
  GI%: 4.42%
[28]
  GI%: 9.48%
[29]
  Mean GI%: 2.16%
[30]
  GI%: 5.86%
[31]
  GI%: 1.66%
[32]
  GI%: 4.21%
[33]
  GI%: 1.92%
[34]
  GI%: 9.23%
[35]
  GI%: 17.15%
[36]
  GI%: 1.65%
[37]
  GI%: 10.90%

## COc1ccc(C2=NNC(c3cn(-c4ccccc4)nc3-c3cc4ccccc4o3)C2)cc1OC (stereo not drawn) [3c, 3-(Benzofuran-2-yl)-4-(3-(3,4-dimethoxyphenyl)-4,5-dihydro-1H-pyrazol-5-yl)-1-phenyl-1H-pyrazole]
[38]
  GI%: 65.24%
[1]
  GI%: 59.83%
[2]
  GI%: 75.25%
[3]
  GI%: 87.48%
[4]
  GI%: 80.97%
[39]
  GI%: 64.60%
[40]
  GI%: 57.50%
[6]
  GI%: 42.27%
[7]
  GI%: 57.67%
[41]
  GI%: 47.04%
[8]
  GI%: 68.39%
[42]
  GI%: 53.25%
[9]
  GI%: 77.82%
[10]
  GI%: 32.78%
[11]
  GI%: 66.98%
[12]
  GI%: 74.84%
[43]
  GI%: 47.50%
[13]
  GI%: 63.24%
[14]
  GI%: 80.36%
[15]
  GI%: 52.36%
[16]
  GI%: 61.15%
[17]
  GI%: 74.37%
[44]
  GI%: 63.70%
[45]
  GI%: 35.60%
[46]
  GI%: 36.89%
[47]
  GI%: 60.18%
[18]
  GI%: 41.14%
[48]
  GI%: 81.94%
[19]
  GI%: 7.63%
[20]
  GI%: 62.47%
[21]
  GI%: 84.09%
[22]
  GI%: 78.06%
[49]
  GI%: 65.22%
[24]
  GI%: 88.22%
[50]
  GI%: 47.04%
[25]
  GI%: 88.80%
[26]
  GI%: 76.85%
[27]
  GI%: 33.71%
[51]
  GI%: 68.12%
[28]
  GI%: 58.47%
[29]
  Mean GI%: 60.71%
[52]
  GI%: 58.72%
[30]
  GI%: 30.46%
[53]
  GI%: 58.05%
[31]
  GI%: 49.94%
[32]
  GI%: 56.77%
[54]
  GI%: 65.91%
[33]
  GI%: 51.41%
[34]
  GI%: 81.51%
[55]
  GI%: 64.31%
[56]
  GI%: 61.79%
[35]
  GI%: 77.33%
[57]
  GI%: 45.64%
[36]
  GI%: 74.73%
[37]
  GI%: 63.01%
[58]
  GI%: 58.00%

## COc1ccc(C2=NN(C(C)=O)C(c3cn(-c4ccccc4)nc3-c3cc4ccccc4o3)C2)cc1OC (stereo not drawn) [4c, 1-(5-(3-(Benzofuran-2-yl)-1-phenyl-1H-pyrazol-4-yl)-3-(3,4-dimethoxyphenyl)-4,5-dihydropyrazol-1-yl)ethanone]
[38]
  GI%: 3.27%
[1]
  GI%: 6.15%
[3]
  GI%: 7.80%
[4]
  GI%: 8.51%
[40]
  GI%: 2.60%
[7]
  GI%: 2.78%
[41]
  GI%: 4.67%
[8]
  GI%: 1.68%
[42]
  GI%: 3.23%
[9]
  GI%: 8.83%
[10]
  GI%: 7.21%
[11]
  GI%: 3.89%
[43]
  GI%: 1.30%
[14]
  GI%: 11.00%
[15]
  GI%: 4.42%
[16]
  GI%: 4.67%
[18]
  GI%: 5.34%
[19]
  GI%: 3.05%
[21]
  GI%: 9.93%
[22]
  GI%: 8.49%
[23]
  GI%: 3.97%
[24]
  GI%: 11.35%
[25]
  GI%: 12.17%
[26]
  GI%: 13.64%
[27]
  GI%: 3.35%
[51]
  GI%: 1.20%
[28]
  GI%: 4.33%
[29]
  Mean GI%: 2.51%
[30]
  GI%: 3.54%
[53]
  GI%: 1.59%
[31]
  GI%: 2.45%
[32]
  GI%: 1.95%
[33]
  GI%: 1.54%
[34]
  GI%: 5.68%
[35]
  GI%: 16.71%
[57]
  GI%: 6.12%
[36]
  GI%: 5.22%
[37]
  GI%: 10.86%
[58]
  GI%: 14.70%

Reference: publication PMC12486440, “Design, synthesis, and in silico studies of new benzofuran–pyrazole hybrids as multi-kinase inhibitors with potential antiproliferative activity” (RSC Advances, 2025)
